Measurements reported in US20240252456A1, “ORAL COMPOSITION, SKIN COSMETIC AND HAIR COSMETIC” (MARUZEN PHARMACEUTICALS CO., LTD., priority 2021, published 2024).

Legend:
[1] = system: Normal human neonatal epidermal keratinocytes (NHEK); assay: Epidermal keratinocyte proliferation promotive action test (MTT); assay type: cell-based; conditions: 3 days, A/B×100 vs no sample
Procedure: Normal human neonatal epidermal keratinocytes (NHEK) were cultured using normal human epidermal keratinocyte growth medium (KGM), and then the cells were collected by a trypsin treatment. The collected cells were diluted with KGM to a cell density of 3.0×10^4 cells/mL, then seeded with 100 μL per well on a collagen-coated 96-well plate, and cultured overnight. After the culturing was completed, 100 μL of the test sample (Sample 1, see Table 12 below for the final concentration) dissolved in KGM was added to each well, and culturing was performed for 3 days. As a control, culturing was performed in the same manner using KGM to which no sample was added.
The epidermal keratinocyte proliferation promotive action was measured using the MTT assay method. After culturing for 3 days, the medium was removed, and 100 μL of MTT dissolved at a final concentration of 0.4 mg/mL in PBS(−) buffer solution was added to each well. […] After extraction, the absorbance at a wavelength of 570 nm was measured. At the same time, the absorbance at a wavelength of 650 nm was measured as turbidity, and the difference between the two was determined as the production amount of blue formazan. From the obtained results, the epidermal keratinocyte proliferation promotion rate (%) was calculated using the following equation. […]

CLDN4 mRNA = assay: Claudin-4 (CLDN4) mRNA expression promotive action test; assay type: cell-based, human; conditions: 100 μmol/L; NHEK, 24 hours, corrected with GAPDH
Procedure: Normal human neonatal epidermal keratinocytes (NHEK) were precultured using normal human epidermal keratinocyte growth medium (KGM), and the cells were collected by a trypsin treatment. The collected cells were diluted with KGM to a cell density of 15×10^4 cells/mL, then seeded with 2 mL portions in a 6-well plate (30×10^4 cells/well), and cultured overnight under conditions of 37° C. and 5% CO2. After culturing, the medium was replaced with normal human epidermal keratinocyte basal medium (KBM, the above KGM without addition of growth additives (hEGF, BPE, insulin, antibacterial agents, hydrocortisone)), and culturing was further performed for 24 hours.
After culturing for 24 hours, the medium was removed, and 2 mL of the test sample (Sample 1, see Table 20 below for final concentrations) dissolved in KBM was added to each well, and culturing was performed under conditions of 37° C. and 5% CO2 for 24 hours. As a control, culturing was performed in the same manner using KBM to which no sample was added. After culturing, the medium was removed, total RNA was extracted using ISOGEN II (available from NIPPON GENE CO., LTD.), each RNA amount was measured using a spectrophotometer, and the total RNA was prepared so as to be 150 ng/μL.
For CLDN4 and GAPDH as an internal standard, the expression levels of mRNA were measured using the above total RNA as a template. […]

[2] = system: Mouse macrophage cells (RAW264.7); assay: Nitric oxide (NO) production suppressive action test; assay type: cell-based; conditions: RAW264.7, LPS 1 μg/mL, 48 hours
Procedure: Mouse macrophage cells (RAW264.7) were cultured using Dulbecco's modified Eagle's medium (DMEM) containing 10% FBS, and then the cells were collected using a cell scraper. The collected cells were diluted with phenol red-free DMEM containing 10% FBS to a cell density of 3.0×10^6 cells/mL, then seeded with 100 μL per well in a 96-well plate, and cultured for 4 hours.
After culturing, the medium was removed, 100 μL of the test sample (Sample 1, see Table 26 below for final concentration) dissolved in phenol red-free DMEM containing DMSO at a final concentration of 0.5% and 10% FBS was added to each well, 100 μL of lipopolysaccharide (LPS, final concentration 1 μg/mL, E. coli 0111:B4, available from DIFCO) dissolved in phenol red-free DMEM containing 10% FBS was added, and culturing was performed for 48 hours. As a control, the LPS process was performed in the same manner using, as substitute for the test sample solution, phenol red-free DMEM containing DMSO at a final concentration of 0.5% and 10% FBS to which no sample was added.
The production amount of nitric oxide (NO) was measured using the amount of nitrite ions ([…]) as an index. After the culturing was completed, the same amount of Griess reagent (5 mass % phosphoric acid solution containing 1 mass % sulfanilamide and 0.1 mass % N-1-naphthyl ethylendiamine dihydrochloride) as the culture supernatant was added to the culture solution in each well and reacted for 10 minutes at room temperature. After the reaction, the absorbance at a wavelength of 540 nm was measured. The nitric oxide (NO) production suppression rate (%) was calculated by the following equation based on the nitric oxide (NO) production amount when no sample was added (control).
Terms in the equation represent the following respective ones. • A: NO amount with test sample addition • B: NO amount […]

O=C(O)CCc1ccc(O)c(O)c1 [Sample 1, 3,4-Dihydroxyhydrocinnamic acid]
Epidermal keratinocyte proliferation promotion rate ([1]; 25 μmol/L): 138.3% | Epidermal keratinocyte proliferation promotion rate ([1]; 100 μmol/L): 152.1% | CLDN4 mRNA expression promotion rate (CLDN4 mRNA): 489.7% | NO production suppression rate ([2]; 31.2 μmol/L): 14.9% | NO production suppression rate ([2]; 125 μmol/L): 49.4% | NO production suppression rate ([2]; 500 μmol/L): 77.8%
